Results reported in patent US11981669B2, “1,7-naphthyridine derivative and preparation method and use therefor” (CSPC ZHONGQI PHARMACEUTICAL TECHNOLOGY (SHIJIAZHUANG) CO., …, priority 2018, dated 2024).

Columns and labels:
HIF-2α = test: Expression of HIF-2α protein in Hep3B cells (western blot, grayscale analysis); type: cell-based, Human; conditions: for fold induction at 30 µM: Homo sapiens, read-out: HIF-2α level of the compound of the present disclosure/HIF-2α level of blank control
Method: (§1) A test compound was dissolved in dimethyl sulfoxide into a 100 mM stock solution, and then was diluted with 0.5% FBS-containing DMEM medium into 30 μM, 10 μM and 3 μM for later use. Human liver cancer cells Hep3B were seeded in a six-well plate at a density of 2.25*10^5 cells/well, 2 mL per well. After cultivation overnight, the cells were treated with compounds at different concentrations for 2 h. The proteins were extracted for western blot and further grayscale analysis.

erythropoietin = test: Expression of erythropoietin in vivo (plasma EPO ELISA after single oral dose); conditions: once; for EPO OD value: plasma 6 hours after administration; for Promotion of expression of erythropoietin in vivo: at 10 mg/kg;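 as to all read-outs here: male C57 mice given compound by mouth, five animals per treatment group, with EPO in plasma measured by ELISA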
Method: (2) 30 c57 mice, male, were divided into 6 groups, 5 mice in each treatment group. […] 6 hours after the administration, blood was taken, and plasma was collected for EPO detection with an ELISA kit (R&D Co.).

HIF-1α = test: Expression of HIF-1α protein in Hep3B cells (western blot, grayscale analysis); type: cell-based, Human; conditions: for fold induction at 30 µM: Homo sapiens, read-out: HIF-1α level of the compound of the present disclosure/HIF-1α level of blank control
Method: as §1

CYP2C9 = CYP2C9 (Homo sapiens (Human), UniProt P11712); test: CYP enzyme inhibition assay; type: in vitro ADME
Chain of CYP2C9 (P11712 whole entry): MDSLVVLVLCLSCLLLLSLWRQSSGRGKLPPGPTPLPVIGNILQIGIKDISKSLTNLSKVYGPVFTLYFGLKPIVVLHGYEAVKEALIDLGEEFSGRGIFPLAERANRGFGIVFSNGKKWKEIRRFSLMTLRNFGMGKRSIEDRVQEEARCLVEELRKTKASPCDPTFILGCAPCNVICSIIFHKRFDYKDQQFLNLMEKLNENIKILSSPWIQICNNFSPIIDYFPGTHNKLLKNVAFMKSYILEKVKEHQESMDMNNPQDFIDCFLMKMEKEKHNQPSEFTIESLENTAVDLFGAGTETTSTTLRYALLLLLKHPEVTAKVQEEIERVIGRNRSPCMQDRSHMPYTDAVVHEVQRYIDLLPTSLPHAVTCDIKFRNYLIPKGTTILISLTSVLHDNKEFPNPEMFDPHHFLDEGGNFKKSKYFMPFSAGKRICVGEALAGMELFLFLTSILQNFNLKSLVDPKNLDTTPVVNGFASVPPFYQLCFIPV
Excerpt: (§2) The compounds of the present disclosure were subjected to the CYP450 enzyme inhibition assay.

CYP2C19 = CYP2C19 (Homo sapiens (Human), UniProt P33261); test: CYP enzyme inhibition assay; type: in vitro ADME
Chain of CYP2C19 (P33261 whole entry): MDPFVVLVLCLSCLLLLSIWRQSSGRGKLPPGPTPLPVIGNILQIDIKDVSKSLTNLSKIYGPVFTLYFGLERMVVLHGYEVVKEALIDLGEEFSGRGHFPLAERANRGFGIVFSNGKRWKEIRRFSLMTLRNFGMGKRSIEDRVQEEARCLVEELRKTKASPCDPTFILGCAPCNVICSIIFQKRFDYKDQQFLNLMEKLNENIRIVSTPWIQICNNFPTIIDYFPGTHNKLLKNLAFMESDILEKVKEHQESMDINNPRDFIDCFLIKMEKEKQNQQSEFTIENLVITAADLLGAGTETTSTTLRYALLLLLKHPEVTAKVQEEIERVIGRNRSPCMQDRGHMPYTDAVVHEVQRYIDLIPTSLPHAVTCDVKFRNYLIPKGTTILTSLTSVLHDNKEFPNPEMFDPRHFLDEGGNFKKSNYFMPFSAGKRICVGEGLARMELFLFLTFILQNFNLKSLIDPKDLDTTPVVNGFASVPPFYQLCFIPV
Excerpt: as §2

CYP3A4-M = CYP3A4-M (Homo sapiens (Human), UniProt P08684); test: CYP enzyme inhibition assay; type: in vitro ADME
Chain of CYP3A4-M (P08684 whole entry): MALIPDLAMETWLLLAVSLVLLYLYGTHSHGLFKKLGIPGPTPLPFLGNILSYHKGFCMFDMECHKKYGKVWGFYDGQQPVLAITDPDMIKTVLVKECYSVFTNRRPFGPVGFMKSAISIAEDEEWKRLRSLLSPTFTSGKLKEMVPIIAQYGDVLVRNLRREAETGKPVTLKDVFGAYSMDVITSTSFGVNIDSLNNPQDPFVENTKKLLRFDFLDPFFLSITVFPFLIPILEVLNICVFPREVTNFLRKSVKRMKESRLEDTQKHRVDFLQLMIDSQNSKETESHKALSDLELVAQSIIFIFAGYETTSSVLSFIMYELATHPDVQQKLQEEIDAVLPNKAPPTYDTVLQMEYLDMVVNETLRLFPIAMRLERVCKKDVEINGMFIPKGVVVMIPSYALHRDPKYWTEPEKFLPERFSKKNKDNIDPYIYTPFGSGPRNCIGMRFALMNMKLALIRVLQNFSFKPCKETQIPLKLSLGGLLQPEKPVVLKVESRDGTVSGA
Excerpt: as §2

CYP2D6 = CYP2D6 (Homo sapiens (Human), UniProt P10635); test: CYP enzyme inhibition assay; type: in vitro ADME
Chain of CYP2D6 (P10635 whole entry): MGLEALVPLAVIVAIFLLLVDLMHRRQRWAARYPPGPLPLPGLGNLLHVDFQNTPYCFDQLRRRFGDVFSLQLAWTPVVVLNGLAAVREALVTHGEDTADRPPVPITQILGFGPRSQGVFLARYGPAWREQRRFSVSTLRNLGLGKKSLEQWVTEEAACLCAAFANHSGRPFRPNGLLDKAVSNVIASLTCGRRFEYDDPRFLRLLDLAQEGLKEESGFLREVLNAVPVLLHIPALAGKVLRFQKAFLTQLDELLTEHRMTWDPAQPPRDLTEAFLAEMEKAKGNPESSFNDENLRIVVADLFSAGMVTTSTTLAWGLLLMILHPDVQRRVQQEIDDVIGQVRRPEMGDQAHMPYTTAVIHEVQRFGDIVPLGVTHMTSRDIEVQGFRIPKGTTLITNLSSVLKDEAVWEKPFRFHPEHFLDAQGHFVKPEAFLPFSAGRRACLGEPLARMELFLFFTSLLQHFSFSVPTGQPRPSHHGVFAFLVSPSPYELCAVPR
Excerpt: as §2

hERG channels = hERG channels (Homo sapiens (Human), UniProt Q12809); test: cell-based; type: cell-based; conditions: for Inhibitory effect on hERG current at the highest test concentration: human, 30 μM
Chain of hERG channels (Q12809 whole entry, the tested form may be a part): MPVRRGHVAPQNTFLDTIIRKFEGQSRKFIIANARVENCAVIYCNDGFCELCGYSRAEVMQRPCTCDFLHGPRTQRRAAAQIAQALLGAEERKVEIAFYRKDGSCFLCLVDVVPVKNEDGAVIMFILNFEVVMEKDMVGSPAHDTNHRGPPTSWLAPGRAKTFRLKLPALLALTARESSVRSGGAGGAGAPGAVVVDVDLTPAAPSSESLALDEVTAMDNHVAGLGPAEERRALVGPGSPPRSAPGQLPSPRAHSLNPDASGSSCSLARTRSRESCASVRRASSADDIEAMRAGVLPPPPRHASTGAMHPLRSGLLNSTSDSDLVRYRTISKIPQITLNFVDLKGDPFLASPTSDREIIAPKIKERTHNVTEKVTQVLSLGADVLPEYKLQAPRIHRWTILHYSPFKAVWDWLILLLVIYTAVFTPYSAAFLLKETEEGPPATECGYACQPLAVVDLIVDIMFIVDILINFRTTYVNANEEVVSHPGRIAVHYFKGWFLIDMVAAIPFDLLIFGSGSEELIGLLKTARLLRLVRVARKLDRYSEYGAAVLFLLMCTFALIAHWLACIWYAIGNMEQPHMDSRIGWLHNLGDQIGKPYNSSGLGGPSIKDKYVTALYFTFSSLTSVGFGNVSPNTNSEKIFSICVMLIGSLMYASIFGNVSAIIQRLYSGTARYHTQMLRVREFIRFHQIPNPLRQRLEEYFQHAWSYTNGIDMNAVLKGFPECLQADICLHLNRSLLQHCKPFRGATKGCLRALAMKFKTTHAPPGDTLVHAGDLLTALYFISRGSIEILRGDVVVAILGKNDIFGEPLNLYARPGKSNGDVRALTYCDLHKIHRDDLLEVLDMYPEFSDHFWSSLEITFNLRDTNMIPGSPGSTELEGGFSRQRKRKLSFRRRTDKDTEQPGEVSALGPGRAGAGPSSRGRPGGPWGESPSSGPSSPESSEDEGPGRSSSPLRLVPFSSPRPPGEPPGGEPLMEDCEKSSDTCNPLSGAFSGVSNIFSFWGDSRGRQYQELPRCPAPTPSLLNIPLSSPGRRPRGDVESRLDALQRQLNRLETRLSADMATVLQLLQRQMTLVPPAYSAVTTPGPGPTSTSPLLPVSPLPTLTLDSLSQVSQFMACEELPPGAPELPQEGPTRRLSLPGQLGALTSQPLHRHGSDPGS
Method: Whole-cell patch clamp technique was used to record hERG current. A cell suspension was added to a 35 mm Petri dish, and the dish was then placed on an inverted microscope stage. After the adherence of cells, they were perfused with extracellular fluid at a flow rate of 1-2 mL/min. A glass microelectrode was drawn by a microelectrode puller in two steps, and the pipette tip resistance was between 2-5 MΩ. After establishing the whole cell recording, the clamp potential was held at −80 mV, followed by depolarization to +60 mV when given voltage stimulation and then repolarization to −50 mV to elicit hERG tail current. All recordings were performed after the current was stable. Extracellular perfusion administration started from a low concentration, staying for 5-10 min at each concentration until the current was stable, and then cells were further perfused with the next concentration.

reticulocytes = test: Effect on reticulocytes of normal mice; type: in vivo, Balb/c mice; set-up: Reticulocytes (RETIC), average: unit not given here; conditions: 10 mg/kg p.o., once; 72 h after administration
Method: 72 Balb/c mice, male, were divided into 12 groups, 6 mice in each treatment group. In the positive drug control groups: the mice in the FG-4592 treatment groups were orally administered once, at two doses of 10 mg/kg and 50 mg/kg, and the mice in the rhEPO treatment group was intraperitoneaily injected once, at a dose of 100 IU/kg. The compounds of the present disclosure were all orally administered once at a dose of 10 mg/kg. 72 h after the administration, blood was collected from the orbit of all animals, and subjected to EDTA-K2 anticoagulation. Then reticulocytes (RETIC) were counted with an automatic blood cell analyzer.

CYP1A2 = CYP1A2 (Homo sapiens (Human), UniProt P05177); type: in vitro ADME
Chain of CYP1A2 (P05177 whole entry): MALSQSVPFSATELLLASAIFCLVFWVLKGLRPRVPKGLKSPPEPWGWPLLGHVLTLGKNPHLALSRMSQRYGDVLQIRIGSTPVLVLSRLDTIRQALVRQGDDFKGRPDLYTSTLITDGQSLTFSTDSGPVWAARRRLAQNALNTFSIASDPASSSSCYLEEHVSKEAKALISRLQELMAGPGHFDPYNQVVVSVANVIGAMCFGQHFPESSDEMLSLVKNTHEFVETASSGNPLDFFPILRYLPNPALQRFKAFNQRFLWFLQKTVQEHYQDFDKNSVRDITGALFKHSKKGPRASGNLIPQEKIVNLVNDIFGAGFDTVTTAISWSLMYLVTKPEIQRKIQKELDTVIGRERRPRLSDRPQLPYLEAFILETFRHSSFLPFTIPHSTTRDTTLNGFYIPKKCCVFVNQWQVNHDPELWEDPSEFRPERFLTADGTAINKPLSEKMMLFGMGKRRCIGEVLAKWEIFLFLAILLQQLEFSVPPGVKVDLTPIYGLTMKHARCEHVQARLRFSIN
Excerpt: as §2

PHD1 = PHD1 (Homo sapiens (Human), UniProt Q96KS0); test: PHD enzyme assay (Eu-VBC TR-fluorescence); type: biochemical
Chain of PHD1 (Q96KS0 whole entry): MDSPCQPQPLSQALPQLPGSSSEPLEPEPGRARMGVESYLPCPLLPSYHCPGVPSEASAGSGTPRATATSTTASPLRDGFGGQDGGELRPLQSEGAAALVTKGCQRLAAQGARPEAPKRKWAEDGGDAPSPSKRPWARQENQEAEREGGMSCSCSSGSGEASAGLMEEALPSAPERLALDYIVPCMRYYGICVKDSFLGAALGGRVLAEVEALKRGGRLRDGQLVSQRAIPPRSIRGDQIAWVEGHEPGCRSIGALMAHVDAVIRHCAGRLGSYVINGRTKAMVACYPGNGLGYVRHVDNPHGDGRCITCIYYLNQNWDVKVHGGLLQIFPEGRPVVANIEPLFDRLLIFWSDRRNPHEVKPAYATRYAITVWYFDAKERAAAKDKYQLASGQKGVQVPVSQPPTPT
Method: (§3) VHL/elongin B/elongin C were constructed, expressed and purified, and VHL was labeled. PHD1, PHD2 and PHD3 were constructed, expressed and purified. VBC protein was labeled with DELFIA Eu-Labeling Kit. A NeutrAvidin 96-well plate was blocked after the addition of 200 μL Blocker Casein to each well, followed by incubation for 30 min. Each well was washed 3 times by adding 200 μL of washing buffer each time. A 200 nM HIF-1a 556-574 solution was prepared with washing buffer, and 100 μL of the solution was added to each well, followed by incubation for 60 min. Each well was washed 3 times by adding 200 μL of washing buffer each time. A 1 mM Biotin solution was prepared with Blocker Casein, and 100 μL of the solution was added to each well, followed by incubation for 30 min. Each well was washed 3 times by adding 200 μL of washing buffer each time. A 20× compound solution was prepared with PHD reaction buffer, with the final concentration of DMSO being 1%. PHD solutions were prepared with PHD reaction buffer, and the concentrations of PHD1, 2, and 3 solutions were 10 ng/μL, 5 ng/μL, and 15 ng/μL, respectively. 95 μL of the PHD solution was added to each compound well, followed by the addition of 5 μL of the compound solution, 95 μL of the PHD solution was added to each full active well, followed by the addition of 5 μL of the PHD reaction buffer; and 100 μL of the PHD reaction buffer was added to each blank well. After mixing homogeneously, the wells were incubated for 60 min. Each well was washed 3 times by adding 200 μL of washing buffer each time A 1 ng/μL Eu-VBC solution was prepared with Eu-VBC binding buffer, and 100 μL of the solution was added to each well, followed by incubation for 60 min. Each well was washed 6 times by adding 200 μL DELFIA Wash Concentrate each time. 100 μL DELFIA Enhancement Solution was added to each well. A microplate reader was used to read TR-Fluorescence at Ex340 and Em615. The flurescence of the sample wells was recorded as FLUsample, the flurescence of the full active wells was recorded as FLU100%, and the flurescence of the blank well was recorded as FLU0%.

PHD3 = PHD3 (Homo sapiens (Human), UniProt Q9H6Z9); test: PHD enzyme assay (Eu-VBC TR-fluorescence); type: biochemical
Chain of PHD3 (Q9H6Z9 whole entry): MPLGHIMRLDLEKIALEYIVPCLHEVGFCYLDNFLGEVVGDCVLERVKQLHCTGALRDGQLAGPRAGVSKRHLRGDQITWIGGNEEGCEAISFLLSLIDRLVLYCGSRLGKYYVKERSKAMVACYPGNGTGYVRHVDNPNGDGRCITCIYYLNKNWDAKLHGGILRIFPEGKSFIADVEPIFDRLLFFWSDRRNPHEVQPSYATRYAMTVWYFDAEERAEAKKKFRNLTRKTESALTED
Method: as §3

[1] = test system: Erythropoietin in liver cancer cells Hep3B; test: Expression of erythropoietin in liver cancer cells Hep3B in vitro (EPO ELISA of supernatant); type: cell-based, Human
Method: The cells were adherent cultured overnight, and after discarding the used medium. In the 96-well culture plate, the cells were washed once with 0.5% FBS-containing DMEM medium. […] 0.5% FBS-containing DMEM medium was used instead of the drug solution as the control well. After incubation in a 37° C., 5% CO2 incubator for 24 h, the supernatant was taken as a sample and frozen at −20° C. for later use. An Elisa kit (abeam) was used to detect EPO in the cell supernatant. A microplate reader was used to detect the OD value at 450/620 nm.

[2] = 2 h, compound at 30 μM, 10 μM and 3 μM

SMILES | HIF-2α protein expression compared with blank control (HIF-2α) | fold induction at 30 µM (HIF-2α; [2]) | EPO OD value (erythropoietin; 10 mg/kg) | EPO OD value (erythropoietin; 50 mg/kg) | Promotion of expression of erythropoietin in vivo (erythropoietin) | HIF-1α protein expression compared with blank control (HIF-1α) | fold induction at 30 µM (HIF-1α; [2]) | IC50 (CYP2C9) [µM] | IC50 (CYP2C19) [µM] | IC50 (CYP3A4-M) [µM] | IC50 (CYP2D6) [µM] | IC50 (hERG channels) [µM] | Inhibitory effect on hERG current at the highest test concentration (hERG channels) | Reticulocytes (RETIC), average (reticulocytes) | IC50 (CYP1A2) [µM] | IC50 (PHD1) [nM] | IC50 (PHD3) [nM] | EPO-enhancing effect compared with positive control drug FG4592 [1] | other results
O=C(O)CNC(=O)c1nc(Br)c2nc(Oc3ccc(Cl)cc3)ccc2c1O [Link-129, 2-(2-(4-chlorophenoxy)-5-hydroxy-8-bromo-1,7-naphthyridine-6-formamido) Acetic Acid] | higher than that of the blank control | 1 to 4.5 | D (D represents EPO OD value>3) | D (D represents EPO OD value>3) | significantly promote the expression of erythropoietin | higher than that of the blank control | 1 to 4.5 | > 50 | > 50 | > 50 | > 50 | > 30 | far from the IC50 value | 7.30 | > 50 |  |  |  | 
O=C(O)CNC(=O)c1nc(Br)c2nc(Oc3ccccc3Cl)ccc2c1O [Link-125, 2-(2-(2-chlorophenoxy)-5-hydroxy-8-bromo-1,7-naphthyridine-6-formamido) Acetic Acid] | higher than that of the blank control | 1 to 4.5 | A (A represents 1.0<EPO OD value<1.5) | D (D represents EPO OD value>3) |  | higher than that of the blank control | 4.5 to 8.5 | > 50 | > 50 | > 50 | > 50 | > 30 | far from the IC50 value | 5.62 | > 50 |  |  |  | 
O=C(O)CNC(=O)c1ncc2nc(Oc3ccccc3)ccc2c1O [Comparative Example 2, 2-(5-hydroxy-2-phenoxy-1,7-naphthyridine-6-formamido) acetic acid, reference compound] |  |  |  |  |  |  |  |  |  |  |  |  |  |  |  | 335 | 492 |  | 
O=C(O)CNC(=O)c1nc(Cl)c2cc(Oc3ccccc3)ccc2c1O [Comparative Example 1, reference compound] |  |  |  |  |  |  |  |  |  |  |  |  |  |  |  | 273 | 561 |  | 
O=C(O)CNC(=O)c1nc(Cl)c2nc(Oc3ccc(F)cc3)ccc2c1O [Link-130, 2-(2-(4-fluorophenoxy)-5-hydroxy-8-chloro-1,7-naphthyridine-6-formamido) Acetic Acid] | higher than that of the blank control |  | C (C represents 2<EPO OD value<3) | D (D represents EPO OD value>3) | significantly promote the expression of erythropoietin | higher than that of the blank control |  |  |  |  |  |  |  |  |  |  |  | higher than that of the positive control drug FG4592 | HIF-2α level of the compound of the present disclosure/HIF-2α level of blank control (HIF-2α; [2]): B (B represents 4.5 < protein ratio < 8.5); HIF-1α level of the compound of the present disclosure/HIF-1α level of blank control (HIF-1α; [2]): B (B represents 4.5 < protein ratio < 8.5); EPO level of the compound of the present disclosure/EPO level of FG4592 ([1]; 24 h, compound at 100 μM and 10 μM, supernatant ELISA): C (C represents EPO ratio ≥ 1.3)
O=C(O)CNC(=O)c1nc(Cl)c2nc(Oc3ccccc3Cl)ccc2c1O [Link-124, 2-(2-(2-chlorophenoxy)-5-hydroxy-8-chloro-1,7-naphthyridine-6-formamido) Acetic Acid] | higher than that of the blank control | 4.5 to 8.5 | D (D represents EPO OD value>3) | D (D represents EPO OD value>3) | significantly promote the expression of erythropoietin | higher than that of the blank control | 4.5 to 8.5 | > 50 | > 50 | > 50 | > 50 | > 30 | far from the IC50 value | 6.80 | > 50 |  |  | higher than that of the positive control drug FG4592 | 
